6 substances from patent US9814758B2, “Inhibitors of apoptosis and uses thereof” (CENTRE NATIONAL DE LA RECHERCHE SCIENTIFIQUE-CNRS, priority 2010, dated 2017) can be followed below.

Entries after “also recorded” stand apart in the source; their conditions may differ. No end group written: not given here.

Experiment [1] has as its target T1, His-tagged intracellular region of Fas receptor (Homo sapiens, UniProt P25445).
T1 construct: His-tagged intracellular region of Fas receptor [10 μg/ml]; purchased Sigma
T1 sequence (P25445 191-335 limits assumed): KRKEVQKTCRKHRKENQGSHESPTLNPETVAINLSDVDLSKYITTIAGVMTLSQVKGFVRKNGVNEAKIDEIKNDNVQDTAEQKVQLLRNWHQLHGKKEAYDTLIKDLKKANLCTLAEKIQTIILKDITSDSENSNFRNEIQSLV
Briefly: SPOT peptide array, enzyme-linked blot with His-tagged Fas. Particulars: Fas 10 μg/ml, anti-His/anti-mouse-HRP. In kind it is binding. Here is the method:
FIG. 1: Determination of the DAXX epitope by SPOT synthesis. (A) The amino acid sequence of DAXX was dissected in overlapping peptide arrays (pepscan; 15 mer peptides with a shift of 3 amino acids) and analyzed in enzyme-linked blot. […] Incubation conditions: His-tagged intracellular region of Fas receptor [10 μg/ml]; antibodies: anti-His-(mouse) (Sigma H1029; 1:6,000)/anti-mouse-HRP (Calbiochem 401207; 1:2,000), exposure time: 1 minute. (B) Alignment of the human DAXX sequence comprising the 16-mer KKSRKEKKQTGSGPLG (=DAXXp of SEQ ID NO: 5) with the DAXX sequences of other species (mouse, rat, dog (CANFA) and green monkey (CHLAE)).
FIG. 2: Determination of the optimal length of the DAXX epitope (=DAXXp) by SPOT synthesis. (A) The DAXXp-211 and DAXXp-209 peptides (of SEQ ID NO: 2 and SEQ ID NO: 3, respectively) were successively shortened by one amino acid residue at the N-terminus, at the C-terminus and both at the N- and the C-termini, and analyzed using enzyme-linked blot. […] Incubation conditions: His-tagged intracellular region of Fas receptor [10 μg/ml]; antibodies: anti-His-(mouse) (Sigma H1029; 1:6,000)/anti-mouse-HRP (Calbiochem 401207; 1:2,000), exposure time: 1 minute. (B) Alignment of both peptide sequences DAXXp-211 and DAXXp-209; corresponding to the brightest spots, to determine the optimal DAXX peptide sequence.
FIG. 8: Determination of FADDp15 and its anti-apoptotic effect in cardiomyocytes. (A) The protein sequences of FADD were dissected in overlapping peptide arrays (pepscan; 15 mer peptides with a shift of 3 amino acids) and analyzed using enzyme-linked blot. […] (B) The peptide sequence of FADDp-11 (=FADDp15=SEQ ID NO: 9) was successively shortened by one amino acid residue at the C-terminus, the N-terminus, or at both the C-terminus and the N-terminus, and analyzed using enzyme-linked blot. […] The shortest FADD epitope (a 9-mer with sequence KRKLERVQS (=FADDp=SEQ ID NO: 12)) corresponded to spot No. 24. Incubation conditions: His-tagged intracellular region of Fas receptor [10 μg/ml]; antibodies: anti-His-(mouse) (Sigma H1029; 1:6,000)/anti-mouse-HRP (Calbiochem 401207; 1:2,000), exposure time: 1 minute.
The peptides were synthesized on N-modified CAPE-membranes (Bhargava et al, Mol. Recognit, 2002, 15: 145) and prepared by a MultiPep SPOT-robot (INTAVIS Bioanalytical Instruments AG, Cologne, Germany). Array design was performed with the aid of the in-house software LISA 1.71. The synthesis started with spot definition using a standard protocol [Frank, Tetrahedron, 1992, 48: 9217), followed by the coupling of a solution of Fmoc-cysteine-(Trt)-Opfp (0.3M) in N-methylpyrolidone (NMP) and Fmoc-alanine-Opfp (double coupling, 15 min reaction each). After Fmoc cleavage with piperidine in DMF (20%), 4-hydroxymethylphenoxyacetic acid (HMPA) dissolved in dimethylformamide (DMF, 0.6M solution) and activated with EEDQ (1.1 equiv) was added, and samples were directly spotted on the membrane (4× coupling, 15 min reaction each). The membrane was acetylated with acetic anhydride in DMF (2%), washed with DMF (5×3 min), ethanol (2×3 min), and diethyl ether (2×3 min), and finally air dried. Solutions of Fmoc-amino acid-OH (0.4M) activated with 1,1′-carbonyldiimidazole (CDI, 3 equiv) in DMF were spotted on the membrane (4× coupling, 15 min reaction time each). Proline, tyrosine, and glutamine were activated with 1,1′-carbonyldi(1,2,4-triazole) (CDT). The Fmoc group was removed from the spots, and the peptide sequences were completed using the standard SPOT synthesis protocol (Frank, Tetrahedron, 1992, 48: 9217) followed by a N-terminal tag with β-alanine.
The primary sequence of the DAXX protein (SEQ ID NO: 1) was dissected in overlapping 15 mer peptides (3 amino acids shift) and all the peptides (243 peptides) were synthesized on cellulose membrane by SPOT synthesis as described above. The peptide library was incubated with the His-tagged intra-cellular region of the Fas receptor (Sigma). […]

The test system of experiment [2] is primary cardiomyocytes. Briefly: STS-induced DNA fragmentation (Cell Death detection ELISA PLUS) in primary cardiomyocytes. In kind it is cell-based, mouse. Particulars: for ability to decrease cell apoptosis / protect the cells: against STS; for reduction of DNA fragmentation: peptide given together with staurosporine, 1 μM, related to STS-treated cells (=100%), FIG. 5B. Here is the method: FIG. 5: In vitro evaluation of the anti-apoptotic activity of CPPs and CPP-conjugates. Workflow and quantitation of DNA fragmentation in (A) C2C12 cells, (B) primary cardiomyocytes, (C) H9c2 cells and (D) NG108-15 cells. Data were normalized to 100% STS. Data shown are the means±SEM, with n≧5. Cells were seeded in 24-well plates and grown overnight. The next day, the cells were incubated with STS alone or with STS+1 μM peptide (in OPTI-MEM) (OPTI-MEM® is a modification of Eagle's Minimum Essential Media, buffered with HEPES and sodium bicarbonate, and supplemented with hypoxanthine, thymidine, sodium pyruvate, L-glutamine, trace elements, and growth factors) (STS concentration and incubation time for each cells are given in the figure). Thereafter, solutions were removed, replaced by complete medium and further incubated for 40 h. Following the regeneration phase, the cells were lyzed and DNA fragmentation was detected according to manufacturer's instructions (Cell Death detection ELISA^PLUS kit—Roche Diagnostics).
FIG. 6: Anti-apoptotic activity of variants of the Tat-DAXXp sequence on primary cardiomyocytes. As described in the caption of FIG. 5, the different analogues of the DAXXp sequence (see Table 2) were assessed for anti-apoptotic properties against STS (Cell Death detection ELISA^PLUS kit—Roche Diagnostics) (A-B). None of the analogues were able to protect the primary cardiomyocytes—a fact which confirms that the 16mer DAXXp has the optimal length and sequence for highest cardioprotective effect.
FIG. 7: Comparison of the murine/rat DAXXp with the human DAXXp sequence in terms of anti-apoptotic activity on C2C12 cells, primary cardiomyocytes, and H9c2. The murine DAXXp sequence conjugated to Tat (Tat-mDAXXp—SEQ ID NO: 61) which is identical to the rat DAXXp sequence (see FIG. 1B), was compared to the human construct (Tat-DAXXp) in terms of anti-apoptotic properties against STS (Cell Death detection ELISA^PLUS kit—Roche Diagnostics). The C2C12 cells and the primary cardiomyocytes used were from mice and the H9c2 cells from rat.
FIG. 9: Comparison of FADDp constructs with Tat-DAXXp in terms of anti-apoptotic activity in primary cardiomyocytes and in H9c2 cells. Quantification of DNA normalized to 100% STS. Data shown are the means±SEM, with n≧5. Cells were seeded in 24-well plates and grown overnight. The next day, the cells were incubated with STS alone or with STS+1 μM peptide (in OPTI-MEM®) (OPTI-MEM® is a modification of Eagle's Minimum Essential Media, buffered with HEPES and sodium bicarbonate, and supplemented with hypoxanthine, thymidine, sodium pyruvate, L-glutamine, trace elements, and growth factors) (STS concentration is given in the figure and incubation time is given in FIG. 5). Thereafter, solutions were removed, replaced by complete medium and further incubated for 40 hours. Following the regeneration phase, the cells were lyzed and DNA fragmentation was detected according to manufacturer's instructions (Cell Death detection ELISA^PLUS kit—Roche Diagnostics).
FIG. 10: Comparison of Tat-DAXXp and Tat-FADDp15 alone and in combination in primary cardiomyocytes (A) and in H9c2 cells (B).
Thereafter, the capacity of these peptides to inhibit apoptosis induced by staurosporine was evaluated. Apoptosis was determined using the Cell Death detection ELISA^PLUS kit (Roche) measuring the DNA fragmentation.
In most publications, anti-apoptotic peptides currently available in the art are administrated 3-4 hours prior to apoptosis induction, which is poorly relevant to a clinical application. For that reason, the protocol used in the present study included administration of the peptides together with the staurosporine. […] This was not observed with CPP alone or with the Tat-scrDAXXp or Tat-ncDAXXp negative controls. […] To better compare the results, the DNA fragmentation (described by the enrichment factor) is related to the staurosporine-treated cells (=100%).
Background: ELISA stands for enzyme-linked immunosorbent assay.

Experiment [3] relates to C57Bl6 mice, myocardial ischemia-reperfusion. Description: Myocardial ischemia-reperfusion IR60' (40 min ischemia, 60 min reperfusion). It counts as in vivo, mouse. Particulars: IR60'; data not shown. Here is the method: FIG. 11: In vivo experimental protocol. C57Bl6 mice underwent a surgical protocol of myocardial ischemia-reperfusion (IR). The black box represents the period of ischemia to which the mice were submitted. Infarct size or cell death measurements were performed at the end of surgery for each protocol (indicated by ↑). IR60′: 40 minutes of Ischemia, 60 minutes of Reperfusion. IR24h: 40 minutes Ischemia and 24 hours Reperfusion.
FIG. 12: Cardioprotective effects of Tat-DAXXp (1 mg/kg—IV) in mice subjected to IR60′. Infarct size (in % of area at risk) and internucleosomal DNA fragmentation determined by ELISA were quantified in mice subjected to IR60′ and treated with Tat, Tat-DAXXp or Tat-scrDAXXp (1 mg/kg) as well as with DAXXp (10 mg/kg) (intravenous injection (IV) 5 minutes before reperfusion). Means±SEM were plotted for (A): Area at risk/LV mass (left ventricle), (B): Infarct size (in % of area at risk) and (C): (I/NI ratio) corresponding to the ratio of soluble nucleosome in the ischemic portion versus the non-ischemic portion of LV tissues. Statistical analysis was performed using One-way ANOVA with Neuman-Keuls post test for multiple comparisons (GraphPad Prism software). P<0.05, P<0.01 and P<0.001 versus Tat-DAXXp were noted *, **, and *** respectively. P=ns (not significant) for P>0.05.
FIG. 13: Dose response for Tat-DAXXp and DAXXp in mice subjected to IR60′. Infarct size (in % of area at risk) and internucleosomal DNA fragmentation determined by ELISA were quantified in mice subjected to IR60′ and treated with Tat (1 mg/kg), Tat-DAXXp (0.1, 1 and 10 mg/kg) or DAXXp (0.1, 1 and 10 mg/kg) injected intravenously 5 minutes before reperfusion. Means±SEM were plotted for (A): Area at risk/LV mass (left ventricle), (B): Infarct size (in % of area at risk) and (C): (I/NI ratio) corresponding to the ratio of soluble nucleosome in the ischemic versus the non-ischemic portion of LV tissues.
In a second step, the cardioprotective effects of DAXXp were evaluated in an in vivo model of myocardial ischemia-reperfusion. Acute myocardial ischemia and reperfusion were performed in C57Bl6 mice subjected to a surgical model of reversible coronary occlusion. Male mice (22-28 g) were anesthetized and ventilated via a tracheal intubation using a Harvard rodent respirator. Body temperature was maintained between 36.8° C. and 37.0° C. via a thermo-regulated surgical table. The chest was opened by left lateral thoracotomy and a reversible coronary artery snare occluder was placed around the left coronary artery. Mice were randomly allocated to two different surgical protocols of myocardial ischemia-reperfusion (FIG. 11). At the end of reperfusion, the artery was re-occluded and phtalocyanine blue dye was injected into the left ventricle cavity and allowed to perfuse the non-ischemic portions of the myocardium. To determine the effect of DAXXp on myocardial infarct size, peptides were administered intravenously (caudal vein) 5 minutes before reperfusion during the surgical protocol of ischemia-reperfusion. The control groups were treated with Tat or Pip2b peptide (for CPP alone). The dose of 1 mg/kg was chosen (μmolar range) and dose responses for 0.1 and 10 mg/kg were also tested.
At the end of reperfusion, mice were re-anaesthetized, the coronary ligature definitively tightened, the blue dye injected and the harvested left ventricles were dedicated to infarct size (TTC method, Schwartz et al, J Thromb. Thromb., 2000; 10: 181-187) or DNA fragmentation measurements (Cell death detection ELISA^PLUS kit, Roche Diagnostics) in order to investigate the cardioprotective effects against ischemia-reperfusion injuries.

As for “KSRKEKKQTGSGPLG (listed as Homo sapiens) [DAXXp-15]”, the “interaction with the Fas receptor / signal intensity of the spot” value in experiment [1] is “interact with the Fas receptor”; in experiment [1] (listed as Spot No. 211) it was “highest signal intensity”. For the same substance, in experiment [2], the “ability to decrease cell apoptosis / protect the cells” value is on record as “only DAXXp is capable of decreasing cell apoptosis”.
Take “DAXXp-14: fragment of the DAXX protein, amino acid sequence set forth in SEQ ID NO: 6 (SRKEKKQTGSGPLG; listed as Homo sapiens)”: the “interaction with the Fas receptor / signal intensity of the spot” value in experiment [1] is recorded as “interact with the Fas receptor”. Besides, the “ability to decrease cell apoptosis / protect the cells” value in experiment [2] is listed as “only DAXXp is capable of decreasing cell apoptosis”.
The matching figures for “KRKLERVQS (listed as Homo sapiens) [FADDp]”: “interact with the Fas receptor” and “decrease cell apoptosis”.
Take “VGKRKLERVQSGLDL (listed as Homo sapiens) [FADDp15]”: in experiment [1], the “interaction with the Fas receptor / signal intensity of the spot” value is “higher signal intensity; also recorded: interact with the Fas receptor”. The “ability to decrease cell apoptosis / protect the cells” value in experiment [2] is recorded as “decrease cell apoptosis”.
With “GRKKRRQRRRPPQ-KKGRKQSGESLGTPKK-NH2 (GRKKRRQRRRPPQKKGRKQSGESLGTPKK-NH2) [Tat-scrDAXXp, negative control; scrambled version of DAXXp conjugated to Tat]”, the “reduction of DNA fragmentation” value in experiment [2] is given as “not observed”. Moreover, the “cardioprotection (infarct size, DNA fragmentation)” value in experiment [3] was “not observed”.
On to “GRKKRRQRRRPPQ-AKLYVYINELCTVLK-NH2 [Tat-ncDAXXp]”, for which the “reduction of DNA fragmentation” value in experiment [2] was “not observed”.
